The text below walks through data of US11390584B2, “1-cyano-pyrrolidine compounds as USP30 inhibitors” (Mission Therapeutics Limited, priority 2015, dated 2022).

For orientation: IC50 means the point on the concentration scale where inhibition reaches its midpoint.

The assay deals with USP30 (Homo sapiens (Human), UniProt Q70CQ3). As to the kind of experiment: USP30 biochemical FP or FI IC50 assay. The note with it: read-out: IC50 range. On the procedure: In Vitro USP30 FP Inhibition Assay
Chain of USP30 (Q70CQ3 57-517): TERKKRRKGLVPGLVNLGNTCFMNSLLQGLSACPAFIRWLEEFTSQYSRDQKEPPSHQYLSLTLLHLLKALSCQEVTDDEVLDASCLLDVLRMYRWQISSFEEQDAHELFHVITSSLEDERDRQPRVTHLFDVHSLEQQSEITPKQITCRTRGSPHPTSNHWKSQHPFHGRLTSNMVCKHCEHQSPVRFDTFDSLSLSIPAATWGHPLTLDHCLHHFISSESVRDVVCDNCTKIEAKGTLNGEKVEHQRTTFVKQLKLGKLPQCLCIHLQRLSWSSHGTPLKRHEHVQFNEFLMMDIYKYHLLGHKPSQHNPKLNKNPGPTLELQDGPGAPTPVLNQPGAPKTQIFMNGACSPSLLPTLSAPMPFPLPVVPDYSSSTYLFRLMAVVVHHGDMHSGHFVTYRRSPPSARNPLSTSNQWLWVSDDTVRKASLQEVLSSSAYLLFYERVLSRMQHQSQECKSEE
USP30 Biochemical IC50 Assay
(§1) Dilution plates were prepared at 21 times the final concentration (2100 μM for a final concentration of 100 μM) in 50% DMSO in a 96-well polypropylene V-bottom plate (Greiner #651201). A typical 8-point dilution series would be 100, 30, 10, 3, 1, 0.3, 0.1, 0.03 μM final. Reactions were performed in duplicate in black 384 well plates (small volume, Greiner 784076) in a final reaction volume of 21 μl. Either 1 μl of 50% DMSO or diluted compound was added to the plate. USP30 was diluted in reaction buffer (40 mM Tris, pH 7.5, 0.005% Tween 20, 0.5 mg/ml BSA, 5 mM—beta-mercaptoethanol) to the equivalent of 0.05 µl/well and 10 μl of diluted USP30 was added to the compound. Enzyme and compound were incubated for 30 min at room temp. Reactions were initiated by the addition of 50 nM of TAMRA labelled peptide linked to ubiquitin via an iso-peptide bond as fluorescence polarisation substrate. Reactions were read immediately after addition of substrate and following a 2 hr incubation at room temperature. Readings were performed on a Pherastar Plus (BMG Labtech). λ Excitation 540 nm; λ Emission 590 nm.
In Vitro USP30 FI Inhibition Assay
USP30 Biochemical Fluorescence Intensity IC50 Assay
as §1, with “0.001 μl/well” for “0.05 µl/well”, “Ubiquitin-Rhodamine 110 (U-555; Boston Biochem) at a final concentration” for “50 nM”, “100 nM.” for “TAMRA labelled peptide linked to ubiquitin via an iso-peptide bond as fluorescence polarisation substrate.”, “h” for “hr”, “487” for “540”, “535” for “590”
On to “N-(1-cyanopyrrolidin-3-yl)-6-(4- phenoxypiperidin-1- yl)nicolinamide [Example 22]”, for which the 50% inhibitory concentration (IC50) fell in the range of 100 to 1000 nM. Then “(R)-3-(1H-benzo [d]imidazol-2-yl)- N-(1-cyano pyrrolidin-3- yl)azetidine-1- carboxamide [Example 134]”, with 100 to 1000 nM; and “rac-(3aR, 6aR)-1-(3-phenyl-1II- pyrazole-5- carbonyl)hexahydropyrrolo[3,4- b]pyrrole-5(1H)-carbonitrile [Example 52]”, with 100 to 1000 nM; and “(R)-N-(1-cyano pyrrolidin-3-yl)- 3-phenoxy azetidine- 1-carboxamide [Example 133]”, with 100 to 1000 nM.

Consider “N-((R)-1-cyano pyrrolidin-3-yl)- ((2S,6R)-2,6- dimethyl morpholino)- 5-fluoroiso nicotinamide [Example 140]”, for which the IC50 was in the range of 100 to 1000 nM.
